The source made the active and inactive calls.
Legend:
INS1 [1] = assay: protection from cytokine-induced mitochondrial depolarization, dose response, cell-based, INS-1E, JC-1 fluorescence ratio, dry powder (AID 488931); format: functional; conditions: Rattus norvegicus
INS1 [2] = assay: beta cell apoptosis inhibitors, cytokine rescue, dose response, luminescence, retest (AID 449756); format: functional, cell-based; conditions: Rattus norvegicus;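 also: cell death triggered by IL-1 beta plus TNF-alpha plus IFN-gamma mixture; protective hits raise ATP signal compared with cytokine alone wells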
[3] = Luminescence Cell-Based Secondary HTS screen to identify cytotoxic compounds of NIH3T3 cells. [Related pubchem assays: 1885, 1968 ]; format: functional
[4] = Luminescence Cell-Based/Microorganism Confirmation at Dose of Inhibitors of Trypanosoma cruzi Infection. [Related pubchem assays: 1885, 1968 ]; format: functional
[5] = inhibitors of intracellular T. cruzi replication, confirmation, NIH3T3 host cells, beta-gal luminescence (AID 2044); format: functional, cell-based;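 also: intracellular parasites grown in NIH/3T3 mouse fibroblasts as host cells; luminescent beta-galactosidase reporter signal from transgenic T. cruzi replicating inside host cells; inhibitors lower the luminescence signal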
[6] = biological target: T1, Microphthalmia-associated transcription factor (Homo sapiens, UniProt O75030); assay: TRPM1 promoter luciferase signal decrease, dose response, MITF inhibitor project, cell-based, SK-MEL-5, cherry-picked, set 3 (AID 493073); format: functional
T1 sequence (O75030 whole entry): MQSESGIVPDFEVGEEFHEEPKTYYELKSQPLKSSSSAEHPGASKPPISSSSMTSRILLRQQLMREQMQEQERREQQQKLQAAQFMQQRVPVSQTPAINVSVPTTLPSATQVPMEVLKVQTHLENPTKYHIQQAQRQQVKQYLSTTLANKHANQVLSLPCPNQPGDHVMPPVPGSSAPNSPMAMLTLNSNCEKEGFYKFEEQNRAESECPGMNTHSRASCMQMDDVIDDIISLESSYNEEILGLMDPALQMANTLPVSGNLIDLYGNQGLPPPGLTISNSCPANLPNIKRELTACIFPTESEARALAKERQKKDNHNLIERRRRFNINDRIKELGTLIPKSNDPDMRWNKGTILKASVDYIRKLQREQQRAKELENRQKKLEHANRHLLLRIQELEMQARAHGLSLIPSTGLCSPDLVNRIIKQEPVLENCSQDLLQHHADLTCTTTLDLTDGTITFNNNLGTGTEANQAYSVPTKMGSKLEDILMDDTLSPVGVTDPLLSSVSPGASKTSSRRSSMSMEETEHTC

cells [7] = assay: cells
[8] = cytotoxicity toward NIH3T3 fibroblasts, dose response, counter-screen, cell-based, ATP luminescence, mouse fibroblasts (AID 2010); format: functional;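 also: cells exposed to compound for about 90 hours before reading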
[9] = inhibitors of Trypanosoma cruzi host-cell infection, confirmation, beta-gal luminescence, NIH3T3 host cells (AID 2630); format: functional, cell-based; conditions: Mus musculus
Vero = assay: cells; format: functional, cell-based; conditions: Chlorocebus sabaeus
[10] = HEp-2 cell cytotoxicity, dose response, cytotoxicity control for RSV inhibitor project, HTS (AID 2410); format: functional; conditions: human respiratory syncytial virus
cells [11] = assay: cells; remark: listed apart in the source
[12] = biological target: T2, Short transient receptor potential channel 4 (Mus musculus, UniProt Q9QUQ5); assay: TRPC4 inhibitor concentration-response, dose response, cell-based, HEK293 TRPC4/mu-opioid, DAMGO stimulus, Fluo-4 (AID 492994); format: functional
T2 sequence (Q9QUQ5 whole entry): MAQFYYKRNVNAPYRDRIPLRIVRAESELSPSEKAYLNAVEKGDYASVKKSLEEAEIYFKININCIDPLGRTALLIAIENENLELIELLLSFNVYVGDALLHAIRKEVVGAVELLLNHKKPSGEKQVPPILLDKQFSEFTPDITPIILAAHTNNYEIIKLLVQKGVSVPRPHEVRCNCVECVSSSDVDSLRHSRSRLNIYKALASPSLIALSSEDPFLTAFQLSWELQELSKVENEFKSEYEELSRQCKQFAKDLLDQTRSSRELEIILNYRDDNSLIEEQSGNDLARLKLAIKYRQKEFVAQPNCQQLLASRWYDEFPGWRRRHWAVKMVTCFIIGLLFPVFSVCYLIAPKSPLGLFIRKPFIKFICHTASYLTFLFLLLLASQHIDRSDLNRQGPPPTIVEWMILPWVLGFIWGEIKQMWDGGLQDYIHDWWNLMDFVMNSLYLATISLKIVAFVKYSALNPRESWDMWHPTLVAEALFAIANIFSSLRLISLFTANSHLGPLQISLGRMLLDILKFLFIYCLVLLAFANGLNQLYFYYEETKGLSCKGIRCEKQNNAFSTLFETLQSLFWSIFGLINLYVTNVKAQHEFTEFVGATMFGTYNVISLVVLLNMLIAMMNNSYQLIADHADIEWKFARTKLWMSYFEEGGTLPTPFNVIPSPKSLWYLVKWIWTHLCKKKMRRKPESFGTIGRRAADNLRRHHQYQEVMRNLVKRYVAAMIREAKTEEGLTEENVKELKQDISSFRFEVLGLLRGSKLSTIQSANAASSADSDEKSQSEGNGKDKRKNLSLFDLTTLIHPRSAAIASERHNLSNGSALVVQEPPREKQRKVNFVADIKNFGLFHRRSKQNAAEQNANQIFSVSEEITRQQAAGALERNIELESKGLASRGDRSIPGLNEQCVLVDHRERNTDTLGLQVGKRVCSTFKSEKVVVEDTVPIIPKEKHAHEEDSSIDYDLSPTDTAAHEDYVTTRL

[13] = biological target: T2, Short transient receptor potential channel 4; assay: SAR Analysis for the identification of selective inhibits of the transient receptor potential cation channel C4 (TRPC4): Automated Electrophysiology_2. [Related pubchem assays (depositor defined):AID2256]; format: functional
A-375 [14] = assay: A375 melanoma cell viability reduction, dose response, counter-screen for MITF modulator project, cherry-pick samples, set 2 (AID 540335); format: functional, cell-based; conditions: Homo sapiens
A-375 [15] = assay: MITF: Counter assay: A375 proliferation Measured in Cell-Based System Using Plate Reader - 2084-03_Inhibitor_Dose_DryPowder_Activity. [Related pubchem assays (depositor defined):AID488944]; format: functional; conditions: Homo sapiens
[16] = Luminescence Cell-Based Dose Confirmation HTS to Identify Activators of 5'UTR Stem-Loop Driven Alpha-Synuclein mRNA Translation in H4 Neuroglioblastoma Cells. [Related pubchem assays: 1829 (Project Summary), 1814 (Primary HTS)]; format: functional
[17] = Luminescence Cell-Based Dose Response HTS to Identify Activators of Luciferase Translation or Activity in H4 […] Cells. [Related pubchem assays: 1829 (Project Summary), 1814 (Primary HTS)]; format: functional
H4 = assay: Luminescence Cell-Based Dose Response HTS to Identify Activators of 5'UTR Stem-Loop Driven Prion Protein mRNA Translation in H4 Neuroglioblastoma Cells. [Related pubchem assays: 1829 (Project Summary), 1814 (Primary HTS)]; format: functional; conditions: Homo sapiens

SMILES: COc1ccc(S(=O)(=O)N(C)C[C@@H]2Oc3c(NC(=O)Nc4ccc5c(c4)OCO5)cccc3C(=O)N([C@@H](C)CO)C[C@H]2C)cc1
- AC50 (INS1 [1]): 98.3 µM (active)

SMILES: Cc1ccc(NC(=O)CCC(=O)N/N=C/c2ccc([N+](=O)[O-])o2)cc1C
- AC50 (INS1 [2]): 7.44 µM (active)
- EC50 [3]: > 195 µM (not active)
- EC50 [4]: 0.032 µM (active)
- EC50 [5]: < 0.1 µM (active)
- AC50 [6]: 6.25 µM (active)
- EC50 (cells [7]): 0.016 µM (active)
- EC50 [8]: > 30 µM (not active)
- EC50 [9]: 0.032 µM (active)

SMILES: Cc1cccc(NC(=O)C(C)Sc2nc3ccccc3c(=O)n2CCCN2CCOCC2)c1 (centres undefined)
- IC50 (Vero): 23.4 µM (active)
- CC50 [10]: 30.8 µM (active)
- IC50 (cells [11]): 26.8 µM (active)

SMILES: CCN(CC)c1cc(C)c2ccccc2n1
- IC50 [12]: 5.24 µM (active)
- IC50 [13]: 7.54 µM (active)

SMILES: Cc1cnn(C(S)=NCCc2ccccc2)c1
- AC50 (A-375 [14]): > 35 µM (active)
- AC50 (A-375 [15]): > 35 µM (active)
- EC50 [16]: 27.3 µM (active)
- EC50 [17]: 25.4 µM (active)
- EC50 (H4): > 120 µM (not active)

— ChEMBL document CHEMBL1201862, “PubChem BioAssay data set” (2004)
